Test results from US20240189269A1, “PHARMACEUTICAL COMPOSITION FOR SUPPRESSING TMPRSS2 EXPRESSION” (Tokyo Institute of Technology, priority 2021, published 2024).

Tested on: ACE2
Experiment: Western blot analysis of amount of ACE2 protein expressed in HepG2 cells
Format: cell-based, human
Conditions: compared to control (untreated)
Description: (i) Human liver cancer-derived cell strain HepG2 was cultured for 2 days with Dulbecco's modified Eagle medium (DMEM) comprising 10% fetal bovine serum (FBS) under 5% CO2.
(ii) After 2 days, 5-aminolevulinic acid hydrochloride salt (ALA) was supplemented to the DMEM comprising FBS to a final concentration of 1 mM, and the cells of (i) were cultured in said medium at 37° C. for 48 hours. Note that those without any supplements was set as the control.
(iii) After 48 hours, the cell supernatant was discarded, the cells were washed with PBS, and then Lysis buffer A (+) (50 mM Tris-HCl (pH 7.4), 20 mM N-methylmaleimide, 1 mM DTT, 1% (v/v) Triton X-100, and Protease inhibitor cocktail) was added, and the cell lysate was collected. Homogenization and centrifugation (3,000 rpm, 10 minutes, 4 °C) were then performed, and the residue was removed. A part of the cell lysate collected was quantified for proteins with the Bradford method, and the remainder was mixed with SDS sample buffer (50 mM Tris-HC1, pH 6.8, 2% SDS, 2.5% mercaptoethanol, 10% glycerol, 0.01% bromophenol blue), and stored frozen at −30° C. The prepared sample was subjected to 7.5% SDS-polyacrylamide electrophoresis, the 7.5% SDS-polyacrylamide gel after electrophoresis was transferred to a membrane, and the transfer was confirmed with
Ponceau S solution. After the transfer was confirmed, Western blot analysis employing rabbit anti-human ACE2 antibody (Abcom, ab108252) and HRP-labeled anti-rabbit IgG secondary antibody (Cell Signaling Technology, 7074S) was performed by conventional means.
As internal standards, each sample was subjected to 7.5% SDS-polyacrylamide electrophoresis, the 7.5% SDS-polyacrylamide gel after electrophoresis was transferred to a membrane, and the transfer was confirmed with Ponceau S solution. After the transfer was confirmed, Western blot analysis employing mouse anti-human actin antibody (MP biomedicals, 691001) and HRP-labeled anti-mouse IgG secondary antibody (Cell Signaling Technology, 7076S) was performed by conventional means. […]

| Compound | amount of ACE2 protein expressed (Experiment 1, ALA 1 mM, 48 hours) | amount of ACE2 protein expressed (Experiment 2, ALA 1 mM) | amount of ACE2 protein expressed (Experiment 2, SFC only 0.5 mM) |
| --- | --- | --- | --- |
| Cl.NCC(=O)CCC(=O)O [ALA, 5-aminolevulinic acid hydrochloride salt] | significantly reduced | reduced | – |
| sodium ferrous citrate [SFC] | – | – | no reduction |
